Measurements as given in US20210179666A1, “CYCLIC PEPTIDES AND METHODS OF USE THEREOF” (Regents of the University of Minnesota, priority 2019, published 2021).
Where “and” joins values, the source holds several entries; their conditions need not be identical. Equal entries are not always repeated. Where two headings read alike, the source gives them in different places. Square brackets hold non-standard residues; d marks the D form. Peptide text beside a SMILES is read from it. Gly(N-(CH2)3-guanidino) = N=C(N)NCCCNCC(=O)O; Dap = NC[C@H](N)C(=O)O

How the values were obtained:
mMC4R = mMC4R (Mus musculus, UniProt P56450); test: cell-based
Chain of mMC4R (P56450 whole entry): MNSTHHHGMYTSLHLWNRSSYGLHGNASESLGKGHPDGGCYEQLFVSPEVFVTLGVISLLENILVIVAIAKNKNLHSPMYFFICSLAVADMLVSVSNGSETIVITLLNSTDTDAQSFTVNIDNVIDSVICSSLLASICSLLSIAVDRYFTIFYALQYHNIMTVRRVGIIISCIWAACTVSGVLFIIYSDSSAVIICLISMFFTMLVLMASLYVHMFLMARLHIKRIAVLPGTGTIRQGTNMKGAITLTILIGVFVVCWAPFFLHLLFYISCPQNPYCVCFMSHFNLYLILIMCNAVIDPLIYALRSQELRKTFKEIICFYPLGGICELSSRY

mMC3R [1] = target: T1, mMC3R (Mus musculus, UniProt P33033); conditions: Example 2; for mMC3R pA2: antagonist, Schild analysis with NDP-MSH, ± SEM, <5.5 = no antagonist potency up to 10,000 nM
T1 sequence (P33033 whole entry): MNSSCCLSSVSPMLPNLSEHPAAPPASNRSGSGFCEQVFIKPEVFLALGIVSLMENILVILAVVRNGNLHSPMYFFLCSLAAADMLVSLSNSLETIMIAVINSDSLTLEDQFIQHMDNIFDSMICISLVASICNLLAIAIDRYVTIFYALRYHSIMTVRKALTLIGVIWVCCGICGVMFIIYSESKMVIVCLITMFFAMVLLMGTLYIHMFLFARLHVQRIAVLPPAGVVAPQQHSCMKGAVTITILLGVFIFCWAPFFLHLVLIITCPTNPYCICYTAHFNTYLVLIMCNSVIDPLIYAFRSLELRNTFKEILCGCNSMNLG

mMC5R [2] = target: T2, mMC5R (Mus musculus, UniProt P41149); conditions: Example 2
T2 sequence (P41149 whole entry): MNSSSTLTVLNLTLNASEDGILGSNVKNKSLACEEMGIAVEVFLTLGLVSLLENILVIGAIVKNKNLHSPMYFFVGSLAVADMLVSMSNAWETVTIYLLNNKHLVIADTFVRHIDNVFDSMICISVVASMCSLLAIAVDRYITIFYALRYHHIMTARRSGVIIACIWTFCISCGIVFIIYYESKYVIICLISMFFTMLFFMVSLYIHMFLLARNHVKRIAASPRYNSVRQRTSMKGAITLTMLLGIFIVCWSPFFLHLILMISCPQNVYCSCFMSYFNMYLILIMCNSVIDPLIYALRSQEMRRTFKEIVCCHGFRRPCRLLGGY

mMC3R [3] = target: T1, mMC3R; conditions: compounds 1 and 2, previously reported, cited from earlier work; for mMC3R pA2: antagonist
hMC4R = hMC4R (Homo sapiens, UniProt P32245); test: cAMP AlphaScreen bioassay, HEK293 cells stably expressing hMC4R; assay type: cell-based; set-up: expressed in transfected cells; conditions: hMC4R, cAMP
Chain of hMC4R (P32245 whole entry): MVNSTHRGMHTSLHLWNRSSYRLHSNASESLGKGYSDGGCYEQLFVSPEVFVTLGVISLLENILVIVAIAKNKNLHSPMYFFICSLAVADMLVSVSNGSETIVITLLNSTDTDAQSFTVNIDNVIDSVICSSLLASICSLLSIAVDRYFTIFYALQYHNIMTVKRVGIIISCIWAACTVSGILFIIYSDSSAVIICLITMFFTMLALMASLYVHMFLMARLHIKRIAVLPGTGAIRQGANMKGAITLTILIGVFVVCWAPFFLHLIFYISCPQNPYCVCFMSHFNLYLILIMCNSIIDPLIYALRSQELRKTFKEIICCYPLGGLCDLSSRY

mMC5R [4] = target: T2, mMC5R; set-up: expressed in transfected cells; conditions: compounds 1 and 2, previously reported; cited from earlier work
mMC1R = mMC1R (Mus musculus, UniProt Q01727); test: cAMP AlphaScreen bioassay, HEK293 cells stably expressing mMC1R; conditions: Example 2; @ 100 μM; EC50 not determinable
Chain of mMC1R (Q01727 whole entry): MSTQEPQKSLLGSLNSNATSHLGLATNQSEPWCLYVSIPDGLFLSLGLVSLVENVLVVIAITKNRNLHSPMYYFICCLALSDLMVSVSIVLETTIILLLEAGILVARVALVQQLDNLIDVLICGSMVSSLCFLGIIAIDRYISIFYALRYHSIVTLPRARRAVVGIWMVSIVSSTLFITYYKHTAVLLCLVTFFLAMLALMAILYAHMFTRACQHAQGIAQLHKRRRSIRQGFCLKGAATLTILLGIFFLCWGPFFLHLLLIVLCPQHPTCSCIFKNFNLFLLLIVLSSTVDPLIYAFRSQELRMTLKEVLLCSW

Compound | Kb (mMC4R) | mMC3R percent maximal stimulatory response (mMC3R [1]; @ 100 μM) | mMC3R pA2 (mMC3R [1]) | mMC3R pA2 (mMC3R [1]; listed as MDE6-82-1c) | mMC5R pharmacology observed (Partial Agonist / Inverse Agonist) (mMC5R [2]) | mMC5R inverse agonist, percent decrease from basal (mMC5R [2]; basal to plateau signal, sigmoidal dose-response) | EC50 (mMC3R [3]; agonist) | mMC3R pA2 (mMC3R [3]) | mMC3R pA2 (mMC3R [3]; listed as MDE6-82-1c) | Observed Inverse Agonism? (hMC4R) | mMC5R inverse agonist, percent decrease from basal (mMC5R [4]) | mMC5R pharmacology observed in agonist assay (Inverse Agonist) (mMC5R [4]) | mMC1R percent maximal stimulatory response (mMC1R)
C[C@@H]1NC(=O)[C@H](CN)NC(=O)[C@H](Cc2ccccc2)NC(=O)[C@H](Cc2ccccc2)NC(=O)CN(CCCNC(=N)N)C(=O)[C@@H]2CCCN2C(=O)[C@H]2CCCN2C(=O)[C@H](Cc2ccccc2)NC1=O [MDE8-108-3c, c[Pro-NArg-Phe-Phe-Dap-Ala-Phe-DPro]] (cyclo([Gly(N-(CH2)3-guanidino)]FF[Dap]AF[dP]P)) | 3.16 µM |  |  |  |  |  |  |  |  |  |  |  | 
C[C@@H]1NC(=O)[C@H](CN)NC(=O)[C@H](Cc2ccccc2)NC(=O)[C@H](Cc2ccccc2)NC(=O)[C@H](CCCNC(=N)N)NC(=O)[C@@H]2CCCN2C(=O)[C@H]2CCCN2C(=O)[C@H](Cc2ccccc2)NC1=O [MDE 6-82-1c, c[Pro-Arg-Phe-Phe-Dap-Ala-Phe-DPro]] |  | 20% @ | 6.5 | 6.5 ± 0.3 | Inverse | −10% | > 100 µM | 6.5 and 6.5 ± 0.09 | 6.5-7.2 | Yes | −15% | Inverse | 36% @
